# Where “and” joins values, the source holds several entries; their conditions need not be identical. Equal entries are not always repeated. Toxic doses and inconclusive results are not listed.
# Tested on: CD2F1 mice, ip Colon 26 adenocarcinoma, median survival T/C
# Assay: NCI In Vivo Anticancer Drug Screen. Data for tumor model Colon 26 Adenocarcinoma (intraperitoneal) in CD2F1 (CDF1) mice
# Settings: endpoint: median survival time, higher = longer survival
# Protocol: The antitumor activity of compounds was measured in mice bearing transplantable tumors. Survival or tumor size were measured and the results are expressed as the measurement made in the treated group (T) divided by the measurement made in the vehicle treated control group (C). The tumor model used in this assay is Colon 26 Adenocarcinoma (intraperitoneal) in CD2F1 (CDF1) mice
# [1] = dose: 2.0 mg/kg/injection, schedule: Q04DX003 (ip), vehicle: saline
# [2] = dose: 4.0 mg/kg/injection, schedule: Q04DX003 (ip), vehicle: saline
structure (smiles),measurement,setting,value
COc1cccc2c1C(=O)c1c(O)c3c(c(O)c1C2=O)C[C@@](O)(C(=O)CO)C[C@@H]3OC1CC(N)C(O)C(C)O1 (some centres not stated),T/C,"dose: 0.25 mg/kg/injection, schedule: Q01DX009 (ip), vehicle: saline",151 % of control
same,T/C,"dose: 0.38 mg/kg/injection, schedule: Q04DX003 (ip), vehicle: water",113 % of control
same,T/C,"dose: 0.5 mg/kg/injection, schedule: Q01DX009 (ip), vehicle: saline",154 % of control
same,T/C,"dose: 0.75 mg/kg/injection, schedule: Q04DX003 (ip), vehicle: water",117 % of control
same,T/C,"dose: 1.0 mg/kg/injection, schedule: Q01DX009 (ip), vehicle: saline",243 % of control
same,T/C,"dose: 1.5 mg/kg/injection, schedule: Q04DX003 (ip), vehicle: water",106 % of control
same,T/C,"dose: 1.5 mg/kg/injection, schedule: Q07DX003 (iv), vehicle: saline",111 % of control
same,T/C,"dose: 1.73 mg/kg/injection, schedule: Q04DX003 (ip), vehicle: water",157 % of control
same,T/C,"dose: 2.0 mg/kg/injection, schedule: Q01DX009 (ip), vehicle: saline",310 % of control
same,T/C,[1],278 % of control
same,T/C,"dose: 3.0 mg/kg/injection, schedule: Q04DX003 (ip), vehicle: water",91 % of control
same,T/C,"dose: 3.0 mg/kg/injection, schedule: Q07DX003 (iv), vehicle: saline",97 % of control
same,T/C,"dose: 3.3 mg/kg/injection, schedule: Q07DX002 (iv), vehicle: saline",105 % of control
same,T/C,"dose: 3.7 mg/kg/injection, schedule: Q07DX003 (iv), vehicle: saline",112 % of control
same,T/C,[2],334 % of control
same,T/C,"dose: 4.3 mg/kg/injection, schedule: Q07DX002 (iv), vehicle: saline",106 % of control
same,T/C,"dose: 4.5 mg/kg/injection, schedule: Q07DX002 (iv), vehicle: saline",108 % of control
same,T/C,"dose: 4.5 mg/kg/injection, schedule: Q07DX002 (sc), vehicle: saline",101 % of control
same,T/C,"dose: 4.8 mg/kg/injection, schedule: Q04DX003 (ip), vehicle: water",152 % of control
same,T/C,"dose: 4.8 mg/kg/injection, schedule: Q07DX003 (iv), vehicle: saline",107 % of control and 108 % of control
same,T/C,"dose: 5.4 mg/kg/injection, schedule: Q07DX002 (iv), vehicle: saline",111 % of control
same,T/C,"dose: 5.8 mg/kg/injection, schedule: Q07DX003 (iv), vehicle: saline",115 % of control
same,T/C,"dose: 6.0 mg/kg/injection, schedule: Q04DX003 (ip), vehicle: water",120 % of control
same,T/C,"dose: 6.3 mg/kg/injection, schedule: Q07DX002 (ip), vehicle: saline",197 % of control
same,T/C,"dose: 6.3 mg/kg/injection, schedule: Q07DX002 (iv), vehicle: saline",105 % of control and 106 % of control
same,T/C,"dose: 6.3 mg/kg/injection, schedule: Q07DX003 (iv), vehicle: saline",113 % of control and 114 % of control and 115 % of control
same,T/C,"dose: 6.5 mg/kg/injection, schedule: Q07DX002 (iv), vehicle: saline",122 % of control
same,T/C,"dose: 7.3 mg/kg/injection, schedule: Q07DX002 (iv), vehicle: saline",117 % of control
same,T/C,"dose: 7.3 mg/kg/injection, schedule: Q07DX002 (sc), vehicle: saline",114 % of control
same,T/C,"dose: 8.1 mg/kg/injection, schedule: Q07DX002 (iv), vehicle: saline",104 % of control and 112 % of control
same,T/C,"dose: 8.1 mg/kg/injection, schedule: Q07DX003 (iv), vehicle: saline",111 % of control and 119 % of control (2×)
same,T/C,"dose: 8.7 mg/kg/injection, schedule: Q07DX002 (iv), vehicle: saline",121 % of control
same,T/C,"dose: 9.0 mg/kg/injection, schedule: Q07DX003 (iv), vehicle: saline",111 % of control
same,T/C,"dose: 9.3 mg/kg/injection, schedule: Q07DX002 (iv), vehicle: saline",109 % of control
same,T/C,"dose: 9.8 mg/kg/injection, schedule: Q07DX002 (iv), vehicle: saline",124 % of control
same,T/C,"dose: 10.5 mg/kg/injection, schedule: Q07DX002 (ip), vehicle: saline",205 % of control
same,T/C,"dose: 10.5 mg/kg/injection, schedule: Q07DX002 (iv), vehicle: saline",111 % of control and 88 % of control
same,T/C,"dose: 10.5 mg/kg/injection, schedule: Q07DX003 (iv), vehicle: saline",120 % of control and 94 % of control
same,T/C,"dose: 12.0 mg/kg/injection, schedule: Q04DX003 (ip), vehicle: water",116 % of control
same,T/C,"dose: 12.0 mg/kg/injection, schedule: Q07DX002 (iv), vehicle: saline",123 % of control
same,T/C,"dose: 12.0 mg/kg/injection, schedule: Q07DX002 (sc), vehicle: saline",122 % of control
same,T/C,"dose: 12.0 mg/kg/injection, schedule: Q07DX003 (iv), vehicle: saline",96 % of control
same,T/C,"dose: 14.0 mg/kg/injection, schedule: Q07DX002 (iv), vehicle: saline",115 % of control
same,T/C,"dose: 14.0 mg/kg/injection, schedule: Q07DX003 (iv), vehicle: saline",117 % of control
same,T/C,"dose: 19.0 mg/kg/injection, schedule: Q07DX002 (sc), vehicle: saline",155 % of control
CCCCCCCC(=O)OCC(=O)[C@]1(O)Cc2c(O)c3c(c(O)c2[C@@H](OC2CC(N)C(O)C(C)O2)C1)C(=O)c1c(OC)cccc1C3=O (some centres not stated),T/C,"dose: 4.5 mg/kg/injection, schedule: Q07DX003 (iv), vehicle: saline",112 % of control
same,T/C,"dose: 7.0 mg/kg/injection, schedule: Q07DX003 (iv), vehicle: saline",112 % of control
N[C@H](C(=O)O)[C@@H]1CC(Cl)=NO1,T/C,"dose: 1.0 mg/kg/injection, schedule: Q04DX003 (ip), vehicle: saline",102 % of control
same,T/C,[1],105 % of control
same,T/C,[2],107 % of control
same,T/C,"dose: 8.0 mg/kg/injection, schedule: Q04DX003 (ip), vehicle: saline",103 % of control
same,T/C,"dose: 16.0 mg/kg/injection, schedule: Q04DX003 (ip), vehicle: saline",110 % of control
same,T/C,"dose: 32.0 mg/kg/injection, schedule: Q04DX003 (ip), vehicle: saline",107 % of control
NC(=O)c1ncn(C2OC(CO)C(O)C2O)c1O (configuration not stated),T/C,"dose: 50.0 mg/kg/injection, schedule: Q04DX002 (ip), vehicle: Klucel (hydroxypropylcellulose) (HPC)",107 % of control
same,T/C,"dose: 100.0 mg/kg/injection, schedule: Q04DX002 (ip), vehicle: Klucel (hydroxypropylcellulose) (HPC)",98 % of control
same,T/C,"dose: 200.0 mg/kg/injection, schedule: Q04DX002 (ip), vehicle: Klucel (hydroxypropylcellulose) (HPC)",107 % of control
same,T/C,"dose: 400.0 mg/kg/injection, schedule: Q04DX002 (ip), vehicle: Klucel (hydroxypropylcellulose) (HPC)",111 % of control
